In patent publication US20150080466A1, “DIPHENYL UREA DERIVATIVES AS FORMYL PEPTIDE RECEPTOR MODULATORS” (Allergan, Inc., priority 2013, published 2015):

Target: T1, FPR2 (Homo sapiens, UniProt P25090)
T1 construct: expressed in transfected cells
T1 sequence (P25090 1-351): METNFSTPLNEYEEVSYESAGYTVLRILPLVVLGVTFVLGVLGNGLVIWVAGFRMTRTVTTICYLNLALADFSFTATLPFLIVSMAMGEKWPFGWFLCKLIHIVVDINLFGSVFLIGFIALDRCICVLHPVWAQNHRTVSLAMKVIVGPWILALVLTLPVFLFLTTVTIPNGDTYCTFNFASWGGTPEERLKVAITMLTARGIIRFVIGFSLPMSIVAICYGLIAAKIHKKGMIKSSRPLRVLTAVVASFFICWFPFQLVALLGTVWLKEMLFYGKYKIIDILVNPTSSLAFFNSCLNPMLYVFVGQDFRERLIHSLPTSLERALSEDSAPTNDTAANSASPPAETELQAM
Assay: Compound-induced calcium activity on FLIPR Tetra in CHO-Gα16 cells stably expressing FPRL1
Type: cell-based
Conditions: for FPR2 Ga16-CHO (Rel. eff.): relative efficacy; for EC50: tested at 0.61 to 10,000 nM, read-out: FPR2 Ga16-CHO EC50
Method: CHO-Gα16 cells stably expressing FPRL1 were cultured in (F12, 10% FBS, 1% PSA, 400 μg/ml geneticin and 50 μg/ml hygromycin) and HEK-Gqi5 cells stable expressing FPR1 were cultured in (DMEM high glucose, 10% FBS, 1% PSA, 400 μg/ml geneticin and 50 μg/ml hygromycin). In general, the day before the experiment, 18,000 cells/well were plated in a 384-well clear bottom poly-d-lysine coated plate. The following day the screening compound-induced calcium activity was assayed on the FLIPR^Tetra. The drug plates were prepared in 384-well microplates using the EP3 and the MultiPROBE robotic liquid handling systems. Compounds were tested at concentrations ranging from 0.61 to 10,000 nM. Results are expressed as EC50 (nM) and efficacy values.

## COC(=O)CCNC(=O)CCc1ccccc1NC(=O)Nc1ccc(Br)cc1 [Compound 3, Methyl3-{[3-(2-{[(4-bromophenyl)carbamoyl]amino}phenyl)propanoyl]amino}propanoate]
  FPR2 Ga16-CHO (Rel. eff.): (1.00)
  EC50: 0.311 µM

## O=C(O)CNC(=O)CCc1ccccc1NC(=O)Nc1ccc(Br)cc1 [Compound 7, {[3-(2-{[(4-Bromophenyl)carbamoyl]amino}phenyl)propanoyl]amino}acetic acid]
  FPR2 Ga16-CHO (Rel. eff.): (0.76)
  EC50: 0.41 µM

## O=C(O)CCCNC(=O)CCc1ccccc1NC(=O)Nc1ccc(Br)cc1 [Compound 4, 4-{[3-(2-{[(4-Bromophenyl)carbamoyl]amino}phenyl)propanoyl]amino}butanoic Acid]
  FPR2 Ga16-CHO (Rel. eff.): (0.99)
  EC50: 2.04 µM

## COC(=O)CCCNC(=O)CCc1ccccc1NC(=O)Nc1ccc(Br)cc1 [Compound 2, Methyl 4-{[3-(2-{[(4-Bromophenyl)carbamoyl]amino}phenyl)propanoyl]amino}butanoate]
  FPR2 Ga16-CHO (Rel. eff.): (0.96)
  EC50: 0.922 µM

## O=C(O)CCNC(=O)CCc1ccccc1NC(=O)Nc1ccc(Br)cc1 [Compound 5, 3-{[3-(2-{[(4-Bromophenyl)carbamoyl]amino}phenyl)propanoyl]amino}propanoic acid]
  FPR2 Ga16-CHO (Rel. eff.): (1.00)
  EC50: 0.637 µM

## COC(=O)CNC(=O)CCc1ccccc1NC(=O)Nc1ccc(Br)cc1 [Compound 6, Methyl {[3-(2-{[(4-bromophenyl)carbamoyl]amino}phenyl)propanoyl]amino}acetate]
  FPR2 Ga16-CHO (Rel. eff.): (0.80)
  EC50: 0.18 µM

## O=C(O)CCc1ccccc1NC(=O)Nc1ccc(Br)cc1 [Compound 1, 3-(2-{[(4-Bromophenyl)carbamoyl]amino}phenyl)propanoic Acid]
  FPR2 Ga16-CHO (Rel. eff.): (1.00)
  EC50: 1.23 µM
